Values of other authors as cited in patent EP4219603A1, “A METHOD FOR PURIFICATION OF ORGANIC WATER-SOLUBLE POLYMERS FROM HYDROPHOBIC CONTAMINANTS” (Ustav experimentálnej fyziky SAV, v.v.i., priority 2022, dated 2023).
Where two headings read alike, the source gives them in different places.

Conditions: logarithm of the octanol/water partition coefficient
[1] = contaminants from Examples 1 to 9 identified in GC-MS HS-SPME elugrams
[2] = model contaminants added to the polymer

Row | Compound | log P [1] | log P [2]
1 | CCCCC(CC)COC(=O)c1ccccc1 (stereo not drawn) [2-ethylhexyl benzoate] | 5.73 | –
2 | c1ccc(-c2ccccc2)cc1 [bifenyl] | 4.00 | –
3 | CC(C)c1ccc2c(c1)CC[C@H]1[C@](C)(CO)CCC[C@]21C [dehydroabietol] | 6.35 | –
4 | CC(C)COC(=O)c1ccccc1C(=O)OCC(C)C [di-isobutyl phtalate] | 4.46 | –
5 | Clc1cc(Cl)cc(-c2ccccc2)c1 [dichlorobiphenyl (PCB 14)] | 5.41 | 5.41
6 | CCCCCCCCCCCC [dodecane] | 7.13 | –
7 | C[C@]12CC[C@H]3C(=CCc4cc(OC(=O)c5ccccc5)ccc43)[C@@H]1CCC2=O [equilin benzoate] | 5.63 | –
8 | CCCCCCCCCCCCCCCC [hexadecane] | 9.26 | –
9 | CCCCCCCCCCCCCCCCCC [octadecane] | 10.32 | 10.32

Continued, values first:

Row | log P [1] | log P [2] | Compound
10 | 5.16 | – | CCCCCCCCCCCC(C)=O [2-tridecanone]
11 | 6.00 | 6.00 | CCCCCCCCCCCC(=O)OCC [ethyl dodecanoate]
12 | 6.37 | – | CCCCCCCCCCCC(=O)OC(C)C [isopropyl dodecanoate]
13 | 7.43 | – | CCCCCCCCCCCCCC(=O)OC(C)C [isopropyl tetradecanoate]
14 | 8.19 | – | CCCCCCCCCCCCCC [tetradecane]
15 | 7.66 | – | CCCCCCCCCCCCC [tridecane]
